Experimental data from patent US6355799B1, “Substituted benzene compounds, process for their preparation, and herbicidal and defoliant compositions containing them” (ISK Americas Incorporated, priority 1997, dated 2002).

Columns and labels:
Format in all cases: in vivo
[1] = tested on: redroot pigweed (Amaranthus retroflexus, AMARE); experiment: Pre-emerge test, greenhouse herbicide activity screening; conditions: pre-emerge, rated 14 days after application, 0 = no damage, 100 = complete death
Procedure, shortened: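 Compounds in acetone were track-sprayed at 15-1000 g ai/ha (187 l/ha) on sandy loam pots: pre-emerge one day after seeding, post-emerge at 2-3 leaf stage with 0.25% v/v non-ionic surfactant. Phytotoxicity was rated 14 days later on a 0 (no damage) to 100 (complete death) scale.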

[2] = tested on: barnyardgrass (Echinochloa crus-galli, ECHCG); experiment: as above; conditions: pre-emerge, rated 14 days after application, 0 = no damage, 100 = complete death
Procedure, shortened: (§1)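 Visual ratings on a 0-100 scale (0 no damage, 100 all plants dead) were taken at 14 days after treatment. Rates of 15-1000 g ai/ha in acetone, 187 l/ha, were sprayed onto soil one day after planting (pre-emerge) or onto 2-3 leaf plants with 0.25% v/v surfactant (post-emerge).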

[3] = tested on: common ragweed (Ambrosia artemisizfolia L., AMBEL); experiment: as above; conditions: pre-emerge, rated 14 days after application, 0 = no damage, 100 = complete death
Procedure, shortened: as §1

[4] = tested on: green foxtail (Setaria viridis, SETVI); experiment: as above; conditions: pre-emerge, rated 14 days after application, 0 = no damage, 100 = complete death
Procedure, shortened: as §1

[5] = tested on: ivyleaf morningglory (Ipomoea hederacea, IPOHE); experiment: as above; conditions: pre-emerge, rated 14 days after application, 0 = no damage, 100 = complete death
Procedure, shortened: as §1

[6] = tested on: johnsongrass (Sorghum halepense, SORHA); experiment: as above; conditions: pre-emerge, rated 14 days after application, 0 = no damage, 100 = complete death
Procedure, shortened: as §1

[7] = tested on: lambsquarters (Chenopodium album, CHEAL); experiment: as above; conditions: pre-emerge, rated 14 days after application, 0 = no damage, 100 = complete death
Procedure, shortened: as §1

[8] = tested on: large crabgrass (Digitaria sanguinalis, DIGSA); experiment: as above; conditions: pre-emerge, rated 14 days after application, 0 = no damage, 100 = complete death
Procedure, shortened: as §1

[9] = tested on: sicklepod (Cassia obtusifolia, CASOB); experiment: as above; conditions: pre-emerge, rated 14 days after application, 0 = no damage, 100 = complete death
Procedure, shortened: as §1

[10] = tested on: velvetleaf (Abutilon theophrasti, ABUTH); experiment: as above; conditions: pre-emerge, rated 14 days after application, 0 = no damage, 100 = complete death
Procedure, shortened: as §1

[11] = tested on: field corn (Zea mays L., var. Dekalb 535, CORN); experiment: Pre-emerge test, crop safety; conditions: pre-emerge, rated 14 days after application, 0 = no damage, 100 = complete death
Procedure, shortened: (§2)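 Fourteen days after spraying, crop and weed injury was graded visually from 0, no effect, to 100, every plant dead. Test substances were dissolved in acetone and applied at 15–1000 g ai/ha with a flat-fan nozzle. Application was either pre-emergence, one day after sowing, or post-emergence at the 2–3 leaf stage.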

[12] = tested on: upland rice (Oryza sp., var. Tebonnet, RICE); experiment: Pre-emerge test, crop safety; conditions: pre-emerge, rated 14 days after application, 0 = no damage, 100 = complete death
Procedure, shortened: as §2

[13] = tested on: barnyardgrass (Echinochloa crus-galli, ECHCG); experiment: Post-emerge test, greenhouse herbicide activity screening; conditions: phytotoxicity rating 0-100 (0 no damage, 100 complete death), 14 days after application
Procedure, shortened: (§3)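 Rating: 0–100 visual injury, 14 DAA. Application: acetone, 187 l/ha, 15–1000 g ai/ha, flat-fan track sprayer with nozzle 40–45 cm above soil or canopy. Post-emerge runs used 0.25% v/v surfactant on 2–3 leaf plants.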

[14] = tested on: common ragweed (Ambrosia artemisizfolia L., AMBEL); experiment: as above; conditions: phytotoxicity rating 0-100 (0 no damage, 100 complete death), 14 days after application
Procedure, shortened: as §3

[15] = tested on: ivyleaf morningglory (Ipomoea hederacea, IPOHE); experiment: as above; conditions: phytotoxicity rating 0-100 (0 no damage, 100 complete death), 14 days after application
Procedure, shortened: as §3

[16] = tested on: johnsongrass (Sorghum halepense, SORHA); experiment: as above; conditions: phytotoxicity rating 0-100 (0 no damage, 100 complete death), 14 days after application
Procedure, shortened: as §3

[17] = tested on: lambsquarters (Chenopodium album, CHEAL); experiment: as above; conditions: phytotoxicity rating 0-100 (0 no damage, 100 complete death), 14 days after application
Procedure, shortened: as §3

[18] = tested on: large crabgrass (Digitaria sanguinalis, DIGSA); experiment: as above; conditions: phytotoxicity rating 0-100 (0 no damage, 100 complete death), 14 days after application
Procedure, shortened: as §3

[19] = tested on: redroot pigweed (Amaranthus retroflexus, AMARE); experiment: as above; conditions: phytotoxicity rating 0-100 (0 no damage, 100 complete death), 14 days after application
Procedure, shortened: as §3

[20] = tested on: sicklepod (Cassia obtusifolia, CASOB); experiment: as above; conditions: phytotoxicity rating 0-100 (0 no damage, 100 complete death), 14 days after application
Procedure, shortened: as §3

[21] = tested on: velvetleaf (Abutilon theophrasti, ABUTH); experiment: as above; conditions: phytotoxicity rating 0-100 (0 no damage, 100 complete death), 14 days after application
Procedure, shortened: as §3

[22] = tested on: field corn (Zea mays L., var. Dekalb 535, CORN); experiment: Post-emerge test, crop safety; conditions: phytotoxicity rating 0-100 (0 no damage, 100 complete death), 14 days after application
Procedure, shortened: as §1

[23] = tested on: upland rice (Oryza sp., var. Tebonnet, RICE); experiment: Post-emerge test, crop safety; conditions: phytotoxicity rating 0-100 (0 no damage, 100 complete death), 14 days after application
Procedure, shortened: as §1

## COc1c(Cl)cc(F)c(-n2c(=O)cc(C(F)(F)F)n(C)c2=O)c1NC(=O)c1cccc(C)c1 [2-23]
[1]; 63 g ai/ha
  Pre-emerge Herbicidal Activity AMARE (phytotoxicity rating, scale 0-100): 100
[1]; 250 g ai/ha
  Pre-emerge Herbicidal Activity AMARE (phytotoxicity rating, scale 0-100): 100
[2]; 63 g ai/ha
  Pre-emerge Herbicidal Activity ECHCG (phytotoxicity rating, scale 0-100): 80
[2]; 250 g ai/ha
  Pre-emerge Herbicidal Activity ECHCG (phytotoxicity rating, scale 0-100): 100
[3]; 63 g ai/ha
  Pre-emerge Herbicidal Activity AMBEL (phytotoxicity rating, scale 0-100): 100
[3]; 250 g ai/ha
  Pre-emerge Herbicidal Activity AMBEL (phytotoxicity rating, scale 0-100): 100
[4]; 63 g ai/ha
  Pre-emerge Herbicidal Activity SETVI (phytotoxicity rating, scale 0-100): 100
[4]; 250 g ai/ha
  Pre-emerge Herbicidal Activity SETVI (phytotoxicity rating, scale 0-100): 100
[5]; 63 g ai/ha
  Pre-emerge Herbicidal Activity IPOHE (phytotoxicity rating, scale 0-100): 100
[5]; 250 g ai/ha
  Pre-emerge Herbicidal Activity IPOHE (phytotoxicity rating, scale 0-100): 100
[6]; 63 g ai/ha
  Pre-emerge Herbicidal Activity SORHA (phytotoxicity rating, scale 0-100): 60
[6]; 250 g ai/ha
  Pre-emerge Herbicidal Activity SORHA (phytotoxicity rating, scale 0-100): 90
[7]; 63 g ai/ha
  Pre-emerge Herbicidal Activity CHEAL (phytotoxicity rating, scale 0-100): 100
[7]; 250 g ai/ha
  Pre-emerge Herbicidal Activity CHEAL (phytotoxicity rating, scale 0-100): 100
[8]; 63 g ai/ha
  Pre-emerge Herbicidal Activity DIGSA (phytotoxicity rating, scale 0-100): 70
[8]; 250 g ai/ha
  Pre-emerge Herbicidal Activity DIGSA (phytotoxicity rating, scale 0-100): 100
[9]; 63 g ai/ha
  Pre-emerge Herbicidal Activity CASOB (phytotoxicity rating, scale 0-100): 70
[9]; 250 g ai/ha
  Pre-emerge Herbicidal Activity CASOB (phytotoxicity rating, scale 0-100): 100
[10]; 63 g ai/ha
  Pre-emerge Herbicidal Activity ABUTH (phytotoxicity rating, scale 0-100): 100
[10]; 250 g ai/ha
  Pre-emerge Herbicidal Activity ABUTH (phytotoxicity rating, scale 0-100): 100
[11]; 63 g ai/ha
  Pre-emerge crop damage CORN (phytotoxicity rating, scale 0-100): 60
[11]; 250 g ai/ha
  Pre-emerge crop damage CORN (phytotoxicity rating, scale 0-100): 100
[12]; 63 g ai/ha
  Pre-emerge crop damage RICE (phytotoxicity rating, scale 0-100): 80
[12]; 250 g ai/ha
  Pre-emerge crop damage RICE (phytotoxicity rating, scale 0-100): 95
[13]; 63 g ai/ha
  Post-emerge Herbicidal Activity ECHCG: 0
[13]; 250 g ai/ha
  Post-emerge Herbicidal Activity ECHCG: 30
[14]; 63 g ai/ha
  Post-emerge Herbicidal Activity AMBEL: 90
[14]; 250 g ai/ha
  Post-emerge Herbicidal Activity AMBEL: 100
[15]; 63 g ai/ha
  Post-emerge Herbicidal Activity IPOHE: 100
[15]; 250 g ai/ha
  Post-emerge Herbicidal Activity IPOHE: 100
[16]; 63 g ai/ha
  Post-emerge Herbicidal Activity SORHA: 50
[16]; 250 g ai/ha
  Post-emerge Herbicidal Activity SORHA: 90
[17]; 63 g ai/ha
  Post-emerge Herbicidal Activity CHEAL: 70
[17]; 250 g ai/ha
  Post-emerge Herbicidal Activity CHEAL: 90
[18]; 63 g ai/ha
  Post-emerge Herbicidal Activity DIGSA: 0
[18]; 250 g ai/ha
  Post-emerge Herbicidal Activity DIGSA: 70
[19]; 63 g ai/ha
  Post-emerge Herbicidal Activity AMARE: 70
[19]; 250 g ai/ha
  Post-emerge Herbicidal Activity AMARE: 100
[20]; 63 g ai/ha
  Post-emerge Herbicidal Activity CASOB: 95
[20]; 250 g ai/ha
  Post-emerge Herbicidal Activity CASOB: 100
[21]; 63 g ai/ha
  Post-emerge Herbicidal Activity ABUTH: 100
[21]; 250 g ai/ha
  Post-emerge Herbicidal Activity ABUTH: 100
[22]; 63 g ai/ha
  Post-emerge Herbicidal Activity CORN (crop damage): 40
[22]; 250 g ai/ha
  Post-emerge Herbicidal Activity CORN (crop damage): 90
[23]; 63 g ai/ha
  Post-emerge Herbicidal Activity RICE (crop damage): 50
[23]; 250 g ai/ha
  Post-emerge Herbicidal Activity RICE (crop damage): 95
